The results in this text go back to patent US8889173B2, “Alpha adrenergic receptor agonists for treatment of pain and/or inflammation” (Warsaw Orthopedic, Inc., priority 2008, dated 2014).

Experiment [1] relates to rat Chronic Constriction Injury model (Bennett Model). Put plainly: von Frey monofilament test of mechanical allodynia (mechanical threshold) in rat chronic constriction injury model. The experiment is classed as in vivo, Wistar rat. From the text:
(§1) The inventors evaluated the efficacy of a various alpha-2-adrenergic receptor agonists and compared them against saline in the rat Chronic Constriction Injury model (i.e., Bennett Model) using Wistar rats. […] The doses given would mimic those achievable by a continuous release drug depot containing a biodegradable polymer (7 rats in each group).
(§2) Each group received the treatment indicated above for total of 15 days and subjected to the following two tests: (1) the Hargreaves test on days 7 and 14; and (2) the von Frey test on days 8 and 15.
(§3) Results from another rat chronic constriction injury model study similar to that discussed in Example 5, except some drug compositions having predominantly alpha 1 agonist activity and some drug compositions having predominantly alpha 2 agonist activity were given as indicated in the table below. The doses given would mimic those achievable by a continuous release drug depot containing a biodegradable polymer (7 rats in each group).
(§4) Each group received the treatment indicated above for total of 14 days and the following two tests: (1) the Hargreaves test on days 7 and 14; and (2) the von Frey test on days 8 and 15.

The test system is the same in experiment [2]. Briefly: Hargreaves test of thermal hyperalgesia (thermal paw withdrawal latency) in rat chronic constriction injury model. The format is in vivo, Wistar rat.
Source text: as §1, §2, §3, §4

Where [3] appears, read: 5 mg/kg subcutaneous every day for 15 days, day 15, vs saline.
Where [4] appears, read: 100 micrograms/kg subcutaneous every day for 15 days, days 7 and 14, FIG. 36.

Turning to `Clc1cccc(Cl)c1N=C1NCCN1` [clonidine, 2,6-dichloro-N-2-imidazolidinyldenebenzenamine], in experiment [1] (0.02 mg/kg subcutaneous every day for 15 days, day 15, vs saline, FIG. 35), the “pain behavioral response for mechanical allodynia” value is given as “statistically significant results of decreasing pain responses”. Besides, the “pain behavioral response (measured as a percentage of baseline) for mechanical allodynia” value in experiment [1] (0.02 mg/kg/day subcutaneously, compared to unloaded polymer depots, FIG. 4) was “reduced the behavioral response”. Also, in experiment [2] (0.02 mg/kg subcutaneous every day for 15 days, days 7 and 14), the “pain behavioral response for thermal hyperalgesia” value was “statistically significant result of decreasing pain responses”.

For the compound `N=C(N)N/N=C/c1c(Cl)cccc1Cl` [guanabenz], the “pain behavioral response for mechanical allodynia” value in experiment [1] (1 mg/kg subcutaneous every day, day 8, vs saline, FIG. 38) is “decreased mechanical allodynia”; in experiment [1] (setting [3]) it was “decreased mechanical allodynia”. In addition, the “pain behavioral response for thermal hyperalgesia” value in experiment [2] (1 mg/kg subcutaneous every day for 15 days, day 7, FIG. 37) was “statistically significant result of decreasing pain responses”.

For `N=C(N)NC(=O)Cc1c(Cl)cccc1Cl` [guanfacine], in experiment [1] (setting [3]), the “pain behavioral response for mechanical allodynia” value is given as “statistically significant results of decreasing pain responses”. Further, in experiment [2] (5 mg/kg subcutaneous every day for 15 days, days 7 and 14, FIG. 36), the “pain behavioral response for thermal hyperalgesia” value is recorded as “statistically significant result of decreasing pain responses”.

As to `Cc1cccc(C(C)c2cnc[nH]2)c1C` (centres unmarked) [medetomidine], in experiment [1] (200 micrograms/kg subcutaneous every day for 15 days, day 15, vs saline, FIG. 35), the “pain behavioral response for mechanical allodynia” value is reported as “statistically significant results of decreasing pain responses”. Besides, the “pain behavioral response for thermal hyperalgesia” value in experiment [2] (setting [4]) is “statistically significant result of decreasing pain responses”; in experiment [2] (200 micrograms/kg subcutaneous every day for 15 days, day 14, FIG. 36) it was “statistically significant result of decreasing pain responses”.

As to `Cc1cc(C(C)(C)C)c(O)c(C)c1CC1=NCCN1` [oxymetazoline], the “pain behavioral response for mechanical allodynia” value in experiment [1] (0.1 mg/kg subcutaneous every day for 15 days, day 8 and 15, vs saline group, FIG. 38) was “decreasing pain responses”; in experiment [1] (0.3 mg/kg subcutaneous every day for 15 days, day 8 and 15, vs saline group, FIG. 38), “decreasing pain responses”. Besides, the “pain behavioral response for thermal hyperalgesia” value in experiment [2] (0.1 mg/kg subcutaneous every day for 15 days, day 7, FIG. 37) was “statistically significant result of decreasing pain responses”; in experiment [2] (0.3 mg/kg subcutaneous every day for 15 days, days 7 and 14, FIG. 37), “statistically significant result of decreasing pain responses”.

`CNC[C@H](O)c1cccc(O)c1` [phenylephrine]: in experiment [1] (10 mg/kg subcutaneous every day, day 8, vs saline, FIG. 38), the “pain behavioral response for mechanical allodynia” value is “decreased mechanical allodynia”. In addition, the “pain behavioral response for thermal hyperalgesia” value is “statistically significant result of decreasing pain responses” in experiment [2] (2 mg/kg subcutaneous every day for 15 days, day 7, FIG. 37); “statistically significant result of decreasing pain responses” in experiment [2] (10 mg/kg subcutaneous every day for 15 days, days 7 and 14, FIG. 37).

On to `Clc1ccc2nsnc2c1NC1=NCCN1` [tizanidine], for which the “pain behavioral response for mechanical allodynia” value in experiment [1] (100 micrograms/kg subcutaneous every day for 15 days, day 15, vs saline, FIG. 35) was “statistically significant results of decreasing pain responses”. Further, the “pain behavioral response for thermal hyperalgesia” value in experiment [2] (setting [4]) is reported as “statistically significant result of decreasing pain responses”.
